Key:
Format in all cases: cell-based
[1] = tested on: AKT and STAT3 phosphorylation in sphere cultured SKOV3ip1 cells; assay: immunostaining of AKT and STAT3 phosphorylation, sphere culture; conditions: for phosphorylated AKT at Ser473: sphere cultured, 5 μM BGJ398, 3 μM TAE648, 5 μM imatinib, 72 hours (FIG. 6)
Text: In order to identify whether a change in signaling pathways associated with cell survival appears or not according to 2D monolayer culture (2D MC) and 3D sphere culture (3D SC), immunostaining was implemented. More particularly, after culturing SKOV3ip1 cells (1×10^6) by 2D monolayer culture or 3D sphere culture described in section 1.1, expression of cell-signaling molecules including AKT, STAT3, p42/44 ERK and p38 MAPK was detected and activation states in the monolayer cultured cells and the sphere cultured cells were compared. The monolayer cultured or sphere cultured SKOV3ip1 cells were harvested and washed once with ice-cold 1× phosphate buffered saline, followed by dissolving the same in 100 μl ice-cold RIPA buffer (20 mM Tris-Cl, pH 8.0, 125 mM NaCl, […], 1 mM ethylene diamine tetraacetic acid, 1% Triton X-100, 0.5% sodium deoxycholate, 0.1% sodium dodecyl sulfate, 1× complete protease inhibitor cocktail (Roche, Mannheim, Germany)) on ice. After assessing the protein concentration using a Bradford Protein assay kit (Biorad, CA, USA), the same amount of proteins (30 μg) was separated by SDS-PAGE and moved to a nitrocellulose membrane, followed by immunostaining the same using a horseradish peroxide conjugated second antibody and a specific antibody. An immune activation band was detected with SuperSignal West Pico Chemiluminescent Substrate (Thermo, IL, USA) using a Fusion Solo chemiluminescence analyzer (Vilber Rourmat Marne la Vallee, France). Antibodies to STAT3 (H-190), STAT3 (B-7) phosphorylated at Tyr705 and actin (C-2) were purchased from Santa Cruz Biotechnology. Rabbit monoclonal antibodies on AKT, AKT (D9E) phosphorylated at Ser473, FGFR1 phosphorylated at Tyr 653/654, p42/44 MAPK, phosphorylated p42/44 MAPK, p38 MAPK and p38 MAPK phosphorylated at Tyr 180/182 were purchased from Cell Signaling Technology (MA, USA). Further, HRP-conjugated goat anti-mouse and rabbit secondary antibodies were purchased from Jackson Laboratories, while BGJ398 used in the experiment (against FGFR1/2/3) was purchased from Selleckchem (USA).
Under this ground, in order to determine whether BGJ398 can vary the state of AKT and STAT3 in the sphere cultured SKOV3ip1 cells, the monolayer cultured (MC) or sphere cultured (SC) SKOV3ip1 cells were subjected to treatment using 5 μM BGJ398, followed by examining the degree of phosphorylation due to the above treatment.
Further, the sphere cultured SKOV3ip1 cells were treated with 5 μM BGJ398 (BGJ), 3 μM TAE648 (TAE) and 5 μM imatinib (IMT), respectively. After 72 hours, a cell lysate was obtained and subjected to immunostaining, followed by analyzing active cellular expression of AKT and STAT3 with the antibody for the same. Further, a phosphorylation level of FGFR1 was used as a positive control group relative to BGJ treatment groups while actin was used as a loading control group. The immunostaining assay procedure was implemented in the same manner as in Example 1.
Since the cell survival of the sphere cultured SKOV3ip1 cells is inhibited by BGJ398 treatment, whether such cell survival inhibition is intermediated through JAK/STAT3 signaling pathway was further examined. […]

[2] = tested on: sphere cultured SKOV3ip1 ovarian cancer cells; assay: crystal violet cell viability, 3D sphere culture; conditions: for cell viability: sphere cultured SKOV3ip1, 72 hours, different concentrations, crystal violet colorimeter (FIG. 3)
Procedure: (§1) For 3D sphere culture, SKOV3ip1 cells (1×10^6) were dispensed on ultra-low adherent 6-well plate (Corning NY, USA), and then, cultured in 5% CO2 incubator using RPMI 1640 medium supplemented with 10% fetal bovine serum (Gibco, NY, USA) and 10 U/ml penicillin/streptomycin (Gibco).
In order to assess the cell viability in the sphere cultured cells, the SKOV3ip1 cells (5×10^4) were dispensed on the super-low adherent 24-well plate and cultured overnight. The cells were harvested from each well and the commercial 24-well plate was moved, followed by further incubation for 12 hours. The adhered and visualized cells were stained with 0.2% crystal violet solution for 20 minutes while gently agitating the same. The stained cells were washed with distilled water until a clean background is observed. For assessment using a colorimeter, the crystal violet dye was extracted with 1% SDS/PBS and absorbance was measured at 570 nm wavelength by EMax PLUS microplate reader (Molecular Device, USA).
(§2) The monolayer cultured or sphere cultured SKOV3ip1 cells were treated with the tyrosine kinase inhibitor and paclitaxel for 72 hours, the cell viability was determined by the crystal violet colorimeter, and results thereof are shown in FIG. 3.
Since the cell survival of the sphere cultured SKOV3ip1 cells is inhibited by BGJ398 treatment, whether such cell survival inhibition is intermediated through JAK/STAT3 signaling pathway was further examined. For this purpose, the selective JAK tyrosine kinase inhibitor AG490 was used at different concentrations of 3.125 to 50 μM in order to treat the monolayer cultured or sphere cultured SKOV3ip1 cells, and after 72 hours, whether it affects the cell viability and AKT and STAT3 activation was examined through crystal violet staining and immunostaining assay, and results thereof are shown in FIG. 7. Actin was used as a loading control group.
Under this ground, when administering BGJ398 in combination with paclitaxel typically used as the existing primary anticancer drug for ovarian cancer, whether paclitaxel resistance of the sphere cultured cells is overcome and improved was determined.

[3] = tested on: monolayer cultured SKOV3ip1 ovarian cancer cells; assay: crystal violet cell viability, 2D monolayer culture; conditions: monolayer cultured SKOV3ip1, 72 hours, different concentrations, crystal violet colorimeter (FIG. 3)
Procedure: 2D monolayer culture was implemented in the following manner: cells were cultured at 37° C., 5% CO2 humidified atmosphere using RPMI 1640 medium (Corning, NY, USA) supplemented with 10% fetal bovine serum (Gibco, NY, USA) and 10 U/ml penicillin/streptomycin.
Crystal violet staining was implemented to determine the cell viability in the monolayer cultured cell model and sphere cultured cell model. In order to implement the crystal violet staining in the monolayer culture model, SKOV3ip1 cells (5×10^4) were dispensed in commercial 24-well plates and incubated overnight. Thereafter, the drug was dispensed with a desired concentration for experiment into each well, followed by further incubation for 72 hours. 300 μl of 0.2% crystal violet solution was added to each well, followed by further incubation for 20 minutes while gently stirring the same. The stained cells were washed with distilled water until a clean background is observed. For assessment using a colorimeter, the crystal violet dye was extracted with 1% SDS/PBS and absorbance was measured at 570 nm wavelength by EMax PLUS microplate reader (Molecular Device, USA).
as §2

[4] = tested on: sphere cultured SKOV3ip1 cells; assay: microscopic observation of aggregated (spheroid) form; conditions: 5 μM BGJ398, 3 μM TAE648, 5 μM imatinib (FIG. 5)
Procedure: as §1

SKOV3ip1 = assay: crystal violet staining assay, cisplatin and BGJ398, 2D culture; conditions: SKOV3ip1, 2D culture, cisplatin alone (FIG. 29)
Procedure: (§3) According to the same procedures as described in the previous examples, each cell line was subjected to 2D culture and a change thereof upon administration of cisplatin alone, BGJ398 alone or in combination with cisplatin was analyzed through crystal violet staining assay.

SKOV3-TR = assay: as above; conditions: 2D culture, cisplatin alone (FIG. 29)
Procedure: as §3

[5] = tested on: SKOV3-TR ovarian cancer cells; assay: microscopic analysis of cell shape change due to cytotoxicity; conditions: single agent: 2.5 μM BGJ398 or 50 nM paclitaxel (FIG. 20)
Procedure: (§4) According to the same procedures as described in the previous examples, each cell line was divided and cultured by 2D monolayer culture and 3D sphere culture, respectively. Then, a change due to administration of BGJ398 alone or in combination with paclitaxel was analyzed through morphological analysis and crystal violet staining assay.
FIG. 20 illustrates a change in cell shape due to cytotoxicity under microscopic analysis, when paclitaxel alone, BGJ398 alone or in combination with paclitaxel was administered to SKOV3-TR ovarian cancer cells.

[6] = tested on: SKOV3-TR ovarian cancer cells; assay: crystal violet cell viability in paclitaxel-resistant cells
Procedure: SKOV3-TR cell line was offered from Sood AK in MD-Anderson Cancer Center (USA) and then used in the present experiments.
Paclitaxel resistance of each of SKOV3 and SKOV3-TR was determined by measuring the cell viability through crystal violet colorimetric assay. This experiment was implemented three times and a difference in results thereof was estimated by student's t-test.
as §4

N#C/C(=C\c1ccc(O)c(O)c1)C(=O)NCc1ccccc1 [AG490, reference compound] was tested, and the “AKT and STAT3 phosphorylation” value ([1]; sphere cultured SKOV3ip1, 5 μM BGJ398 (FIG. 6), AG490, 72 hours (FIG. 7B)) was “not inhibited” and the cell growth ([2]; sphere cultured SKOV3ip1, AG490 3.125 to 50 μM, 72 hours (FIG. 7A)) was “did not suppress cell growth”.
With COc1cc(N2CCC(N3CCN(C)CC3)CC2)ccc1Nc1ncc(Cl)c(Nc2ccccc2S(=O)(=O)C(C)C)n1 [TAE684] the cell viability [3] was “reduced by paclitaxel and TAE648 in a dose-dependent manner”, the “aggregated (spheroid) form of cells” value [4] was “spheroid degradation was not observed” and the “phosphorylated AKT at Ser473” value [1] was “did not show such effects”. The cell viability [2] was “TAE648 resistance was not identified”.
With N.N.[Cl][Pt][Cl] [cisplatin, reference compound] the sensitivity to cisplatin (SKOV3ip1) was “exhibit sensitivity to cisplatin” and the sensitivity to cisplatin (SKOV3-TR) was “exhibit sensitivity to cisplatin”.
In the case of Cc1ccc(NC(=O)c2ccc(CN3CCN(C)CC3)cc2)cc1Nc1nccc(-c2cccnc2)n1 [imatinib], the cell viability [3] is reported as “not effected”, the “aggregated (spheroid) form of cells” value [4] is reported as “spheroid degradation was not observed” and the “phosphorylated AKT at Ser473” value [1] is reported as “did not show such effects”. The cell viability [2] was “did not affect the cell viability”.
CC(=O)O[C@H]1C(=O)[C@@]2(C)[C@H]([C@H](OC(=O)c3ccccc3)[C@]3(O)C[C@H](OC(=O)[C@H](O)[C@@H](NC(=O)c4ccccc4)c4ccccc4)C(C)=C1C3(C)C)[C@]1(OC(C)=O)CO[C@@H]1C[C@@H]2O [paclitaxel, reference compound] was tested, and the cell viability [3] was “reduced by paclitaxel and TAE648 in a dose-dependent manner”, the “cytotoxicity and morphological change” value [5] was “negligible cytotoxicity and no morphological change” and the paclitaxel resistance ([6]; SKOV3-TR compared with SKOV3, crystal violet colorimetric assay (FIG. 15)) was “significantly higher than SKOV cell line”. The anticancer activity ([6]; paclitaxel alone (FIGS. 18, 19)) was “negligible” and the cell viability [2] was “more obviously resistant to paclitaxel than the monolayer cultured SKOV3ip1 cells”.
